Reference: US7510729B2, “Combination of polyvinyl acetate with water-insoluble, acid-insoluble, or alkali-insoluble polymers used for the production of film coatings with highly controlled release and high stability” (BASF Aktiengesellschaft, priority 2002, dated 2009)

Experiment: pH-dependent solubility of the active ingredient
Settings: acidic range

## CC(=O)Oc1ccccc1C(=O)O [Acetylsalicylic acid, acetylsalicylic acid]
  Solubility: 0.45%
